Key:
[1] = tested on: ERRγ target gene SHP (NR0B2); assay: Endogenous SHP (NR0B2) expression by real-time PCR in 293 HEK cells expressing ERRγ via adenovirus; type: cell-based, human; conditions: 293HEK over-expressing ERRγ, 100 nM, 48 hours
Procedure: (§1) FIGS. 7A-7C. […] FIG. 7A. 293 HEK cells expressing either GFP or ERRγ via adenoviral transduction were treated with either vehicle (DMSO) or 100 nM DY40 for 48 hours. Expression of endogenous SHP (NR0B2) was quantitated by real-time PCR. Values are normalized to β-actin transcript and reported relative to GFP untreated levels (=1.0). Data represent mean±S.E.M. for 3 independent trials. FIG. 7B. C2C12 myotubes were treated with either vehicle or 100 nM DY40 for 48 hours. Expression of endogenous SHP was measured by quantitative real-time PCR. Values are normalized to 36b4 (Rp1p0) transcript and reported relative to expression in DMSO treated cells (=1.0). Data represent mean±S.E.M. for 3 independent trials. *, P<0.05 DMSO versus DY40 treated values. FIG. 7C. C2C12 myotubes were treated with either vehicle or 100 nM DY40 for 48 hours. Oxidation of ^3H-palmitate-BSA was measured as described in Methods. Values are normalized to total cellular protein and reported relative to expression in DMSO treated cells (=1.0). […]
(§2) Validation of DY40 effects on endogenous ERRγ target gene expression and metabolism in cell based models. […] We also evaluated the effects of the compound in C2C12 myotubes that have significant endogenous ERRγ expression. […]
(§3) Experimental transcript levels were normalized to 36B4 ribosomal RNA analyzed in separate reactions. […]

Human ERα = biological target: T1, Human ERα (Homo sapiens, UniProt P03372); assay: Full-length ERα, estrogen receptor responsive reporter assay in CV-1 cells; type: cell-based; conditions: selectivity evaluation
T1 construct: Human ERα and ERβ were examined as full-length proteins using an estrogen receptor responsive reporter construct; expressed in transfected cells; host or cells: CV-1 cells, cytomegalovirus-driven expression vectors
T1 sequence (P03372 1-595): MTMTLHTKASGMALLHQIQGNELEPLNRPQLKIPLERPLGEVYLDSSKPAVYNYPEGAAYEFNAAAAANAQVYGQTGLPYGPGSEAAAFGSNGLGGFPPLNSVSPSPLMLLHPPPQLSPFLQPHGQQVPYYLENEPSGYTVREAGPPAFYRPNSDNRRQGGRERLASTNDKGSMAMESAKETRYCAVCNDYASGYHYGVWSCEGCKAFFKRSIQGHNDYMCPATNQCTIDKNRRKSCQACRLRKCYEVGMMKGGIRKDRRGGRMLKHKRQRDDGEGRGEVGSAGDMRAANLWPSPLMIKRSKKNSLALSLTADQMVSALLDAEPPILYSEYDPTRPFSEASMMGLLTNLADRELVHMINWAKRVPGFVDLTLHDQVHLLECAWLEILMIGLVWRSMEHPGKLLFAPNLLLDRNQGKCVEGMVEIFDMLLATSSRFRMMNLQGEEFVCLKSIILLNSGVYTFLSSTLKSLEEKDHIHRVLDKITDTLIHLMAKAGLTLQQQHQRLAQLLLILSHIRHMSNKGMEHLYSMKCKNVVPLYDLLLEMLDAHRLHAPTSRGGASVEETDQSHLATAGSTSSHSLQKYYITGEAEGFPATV
Procedure: Cell based transactivation assays were performed in CV-1 cells as described.^49 ERR activity was assayed with a GAL4 reporter construct and fusion proteins containing the ligand binding domains of human ERRα, human ERRβ and mouse ERRγ linked to the DNA binding domain of yeast GAL4. Human ERα and ERβ were examined as full-length proteins using an estrogen receptor responsive reporter construct. Reporter constructs (300 ng/10^5 cells) and cytomegalovirus-driven expression vectors (20-50 ng/10^5 cells) were added as indicated along with CMX-β-gal (500 ng/10^5 cells) as an internal control. Cells were transiently transfected by Lipofectamine as described.^56 Cells were incubated with DNA complexed liposomes for 2 hours and subsequently treated for approximately 45 hr with phenol red free DMEM FBS containing the indicated compounds. After exposure to ligand, the cells were harvested and assayed for luciferase and β-galactosidase activity. All points were assayed in triplicate and varied by less than 15%. Each experiment was repeated three or more times with similar results. Fold activation is reported.

C2C12 myotubes = assay: Fatty acid oxidation assay (3H-palmitate-BSA) in C2C12 myotubes; type: cell-based; conditions: 100 nM, 48 hours, compared to vehicle-treated controls
Procedure: as §1, with “Methods.” for “Methods. Values are normalized to total cellular protein and reported relative to expression in DMSO treated cells (=1.0).”
The analysis of fatty acid oxidation rates in cells was performed as previously described.^57 Fatty acid ^3H-[9,10]-palimitic acid was complexed to fatty acid-free BSA and this complex was added to 30 uM unlabeled palmitate. […] The substrate was removed and radiolabeled aqueous metabolites (^3H2O) released to the media were measured by scintillation counting. The calculated rates were normalized to total cellular protein.

ERRγ target gene SHP = assay: Endogenous SHP transcript by real-time PCR in C2C12 myotubes; type: cell-based, mouse; conditions: 100 nM, 48 hours, vs DMSO
Procedure: as §1, §2, §3

CC(=O)Oc1ccc(/C(=C(/c2ccccc2)C(C)C)c2ccc(OCCN(C)C)cc2)cc1 [Compound 4a, (E)-4-{1-[4-(2-dimethylamino-ethoxy)-phenyl]-3-methyl-2-phenyl-but-1-enyl}-phenyl acetate]
ERRγ mediated induction of SHP transcript [1]: completely blocked
ERα antagonist activity, in words (Human ERα): remains an antagonist potency of ERα
change in palmitate oxidation rates (C2C12 myotubes): −42%
repression of endogenous SHP transcript levels (ERRγ target gene SHP): ~60%

Source: patent publication US10590056B2, “ERR modulators and uses thereof” (CITY OF HOPE, priority 2017, dated 2020)
